In patent publication US20190307820A1, “COMPOSITIONS AND METHODS OF USING STAT1/3 INHIBITORS WITH ONCOLYTIC HERPES VIRUS” (priority 2016, published 2019):

Assays:
[1] = system: oHSV-1 (G207) in U87 tumors; test: U87 xenograft, C16 with G207: viral DNA qPCR and immunohistochemistry of tumors; assay type: in vivo, mice; settings: 5 mg/kg C16, day 13
Procedure: FIG. 14A is a bar graph showing that C16 triggers oHSV-1 protein expression in microglia/macrophages and enhances virus concentration in glioblastoma in vivo. U87 xenograft mice were treated with vehicle or 5 mg/kg C16 with or without 6×10^6 PFU/ml oHSV-1 (G207) viruses (n=2). Two doses of G207 or vehicle and 4 doses (in every 3 or 4 days) of C16 was administered in total. Tumors were harvested at day 13 post-treatment. Total genomic DNA was extracted from the harvested tumors (n=2) and viral DNA (ICP27) was measured by qPCR (normalized to β-actin). Data shown are relative 2-ΔΔCT value±SE.
5 to 6 weeks old female athymic nude mice were obtained from Harlon laboratories. Human glioma U87 cells were implanted subcutaneously into the lower flank. When tumor size reached ˜75 to 100 mm3, vehicle or C16 (5 mg/kg) was administered intraperitoneally (IP). 2 days (FIG. 14) or 4 days (FIG. 15) after initial C16 administration, vehicle or oHSV-1 were injected intratumourally. Tumor volume was then measured using a caliper (Height×Length×Wide/2). At the end of the experiment, mice were euthanized by using CO2 asphyxiation.
DNA was extracted from 4% paraformaldehyde fixed tumor tissues by using an EZNA tissue DNA kit (Omega Bioteck). […]

[2] = molecular target: T1, STAT1 (Homo sapiens, UniProt P42224); test: Western blot of STAT1 phosphorylation in U87 cells; assay type: cell-based
T1 construct: Extracted protein was then subjected to western blot assay; endogenous in cells; host or cells: U87 cells, with or without HrR3 infection
T1 sequence (P42224 1-750): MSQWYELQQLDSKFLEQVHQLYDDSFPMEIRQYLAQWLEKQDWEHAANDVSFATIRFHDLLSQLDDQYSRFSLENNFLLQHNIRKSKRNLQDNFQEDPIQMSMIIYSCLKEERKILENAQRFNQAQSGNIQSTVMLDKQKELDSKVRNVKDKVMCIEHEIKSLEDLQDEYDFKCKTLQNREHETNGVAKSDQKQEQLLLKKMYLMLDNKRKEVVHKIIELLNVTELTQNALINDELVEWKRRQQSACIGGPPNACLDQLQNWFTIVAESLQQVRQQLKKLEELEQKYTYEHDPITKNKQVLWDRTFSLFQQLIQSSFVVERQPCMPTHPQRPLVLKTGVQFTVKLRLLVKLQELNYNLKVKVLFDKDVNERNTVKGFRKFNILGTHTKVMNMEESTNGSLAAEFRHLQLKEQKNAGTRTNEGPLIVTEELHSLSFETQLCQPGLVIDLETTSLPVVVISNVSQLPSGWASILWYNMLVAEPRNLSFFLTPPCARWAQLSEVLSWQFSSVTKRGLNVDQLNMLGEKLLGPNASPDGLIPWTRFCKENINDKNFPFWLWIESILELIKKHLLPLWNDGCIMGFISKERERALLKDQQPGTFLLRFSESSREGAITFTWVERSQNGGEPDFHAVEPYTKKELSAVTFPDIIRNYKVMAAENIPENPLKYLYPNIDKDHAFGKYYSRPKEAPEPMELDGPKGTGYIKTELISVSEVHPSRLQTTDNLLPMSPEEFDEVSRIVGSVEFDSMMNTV
Procedure: (§1) (FIG. 5A) U87 cells were treated with HrR3 at a MOI of 5 and indicated concentration of nifuroxazide for 6 hours. Extracted protein was then subjected to western blot assay. (FIG. 5B) U87 cells were treated with indicated concentration of HrR3 or nifuroxazide or stattic or in combination for 72 hours. Cytotoxicity was measured by MTT assay. (FIG. 5C) Relative mRNA level (2^−ΔΔCT) is shown. Data are presented as mean SD, *P<0.05 vs corresponding vehicle treatment.
(§2) FIG. 19A and FIG. 19B, U87 cells (A) or CT26 cells (B) were treated with the indicated concentrations of HrR3 or NF or a combination. Total protein was extracted after 24 hours and subjected to western blot analysis. Band intensity was measured using Image J software and normalized to β-actin. Samples were run in triplicate and data are as means±S.E. Statistically significant differences are indicated by P<0.05 or P<0.01. FIG. 19C, Mice subcutaneously bearing U87 tumors were intratumorally injected with a single dose of HrR3 virus (1×10^6 PFU) and/or peritoneally injected doses of NF as indicated. Tumors were harvested on day 10 post treatment and total protein was extracted from a mouse of each treatment group and subjected to western blot analysis in triplicate. Results are reported as means±S.E.
(§3) Expression of key regulator of the Type1 interferon signaling, STAT1 and STAT3, was determined in nifuroxazide treated oHSV-1 infected U87 cells.
(§4) NF is a known inhibitor of STAT1 and STAT3. To evaluate the underlying molecular mechanism of the anti-tumour effect of the NF and oHSV-1 combination, the STAT1 and STAT3 status in U87 cells (FIG. 19A) and CT26 cells (FIG. 19B) cells was determined after an overnight treatment with NF and oncolytic viruses.

[3] = molecular target: T2, STAT3 (Homo sapiens, UniProt P40763); assay type: cell-based
T2 construct: Extracted protein was then subjected to western blot assay; endogenous in cells; host or cells: U87 cells, with or without HrR3 infection
Procedure: as §1, §2, §3, §4

T2 sequence (P40763 whole entry): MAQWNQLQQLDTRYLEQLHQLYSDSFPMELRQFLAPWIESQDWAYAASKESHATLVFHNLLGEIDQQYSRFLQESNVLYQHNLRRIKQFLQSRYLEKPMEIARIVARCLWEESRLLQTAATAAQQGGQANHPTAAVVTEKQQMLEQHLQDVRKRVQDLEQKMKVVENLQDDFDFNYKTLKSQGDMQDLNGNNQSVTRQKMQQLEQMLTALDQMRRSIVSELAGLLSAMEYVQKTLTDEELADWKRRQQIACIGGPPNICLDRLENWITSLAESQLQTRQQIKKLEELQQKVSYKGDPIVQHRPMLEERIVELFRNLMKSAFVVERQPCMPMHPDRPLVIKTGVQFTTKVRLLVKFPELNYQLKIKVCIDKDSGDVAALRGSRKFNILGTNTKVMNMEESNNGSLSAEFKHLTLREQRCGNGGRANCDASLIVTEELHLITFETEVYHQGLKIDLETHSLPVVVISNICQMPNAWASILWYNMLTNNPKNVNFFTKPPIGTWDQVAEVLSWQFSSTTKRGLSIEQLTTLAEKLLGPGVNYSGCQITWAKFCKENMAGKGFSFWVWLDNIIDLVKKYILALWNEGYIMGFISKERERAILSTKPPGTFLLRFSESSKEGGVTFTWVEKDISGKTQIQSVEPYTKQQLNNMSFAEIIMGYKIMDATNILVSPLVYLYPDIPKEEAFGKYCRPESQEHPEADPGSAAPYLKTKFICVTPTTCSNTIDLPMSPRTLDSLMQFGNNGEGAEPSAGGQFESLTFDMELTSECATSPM

Row | SMILES | oHSV-1 titer in the tumor mass (viral DNA copy number, qPCR) [1] | HrR3 induced upregulation of STAT1 phosphorylation ([2]; 24 hours) | STAT1 phosphorylation ([2]; HrR3 MOI of 5, 6 hours) | phosphorylation of STAT1 ([2]; NF alone, 24 hours) | HrR3 induced upregulation of STAT3 phosphorylation ([3]; 24 hours) | STAT3 phosphorylation ([3]; HrR3 MOI of 5, 6 hours) | phosphorylation of STAT3 ([3]; NF alone, 24 hours)
1 | O=C1Nc2ccc3ncsc3c2/C1=C/c1c[nH]cn1 [C16, 6,8-Dihydro-8-(1H-imidazol-5-ylmethylene)-7H-pyrrolo[2,3-g]benzothiazol-7-one] | significantly enhanced oHSV-1 titer |  |  |  |  |  | 
2 | O=C(N/N=C/c1ccc([N+](=O)[O-])o1)c1ccc(O)cc1 [nifuroxazide, Benzoic acid, 4-hydroxy-, [(5-nitro-2-furanyl)metylene]hydrazide] |  | effectively suppressed | dose dependent STAT1 and STAT3 phosphorylation reduction | dose dependent inhibition | effectively suppressed | dose dependent STAT1 and STAT3 phosphorylation reduction | dose dependent inhibition
